Broadly, the IC50 is the midpoint of a concentration-inhibition curve.

Among the data in patent publication EP4032896A1, “THIAZOLOPYRIMIDONES AS INHIBITORS OF DDR1/2 AND THERAPEUTIC USES THEREOF” (Fundación del Sector Público Estatal Centro Nacional de …, priority 2021, dated 2022) are IC50 values, retold here.

Structures are written as SMILES.

In one experiment the target is T1, DDR1 (Homo sapiens, UniProt Q08345).
T1 construct: The enzymes were purchased as a catalytic domain GST Tag DDR1(#PR6913A); purchased ThermoFisher PR6913A
Description: LanthaScreen Eu-Kinase Binding Assay (TR-FRET tracer displacement), DDR1. The conditions noted are these: catalytic domain GST Tag DDR1; Kinase Tracer 178. An excerpt:
(§1) DDR1/2 binding assay: The binding assay relies on the LanthaScreen ™ Eu-Kinase Binding Assay (ThermoFisher Scientfic). This is a kinase assay platform based on measuring the binding and displacement of an Alexa Fluor® conjugate of an ATP-competitive kinase inhibitor or tracer at a kinase active site (Kinase Tracer 178. #PV5593). Binding of the tracer to the kinase is detected by addition of a europium (Eu)-labeled anti-GST antibody (#PV 5594) which specifically labels the kinase of interest. This binding results in a high degree of fluorescence resonance energy transfer (FRET), whereas displacement of the tracer with a kinase inhibitor results in a loss of FRET. The enzymes were purchased as a catalytic domain GST Tag DDR1(#PR6913A) and DDR2 (#PR7167A) from ThermoFisher. Assay conditions were as indicated by the kit manufacturers. Assays were performed in 384-well plates. The final read out was generated using an EnVision plate reader (Perkin-Elmer). The emission ratio was calculated by dividing the acceptor/tracer emission (665 nm) by the antibody/donor emission (615 nm). Values were plotted against the inhibitor concentration and fit to a sigmoid dose-response curve using Activity base by IDBS software.
A general note: In TR-FRET formats the signal depends on donor and acceptor labels being close together.

The target of another experiment is T2, DDR2 (Homo sapiens, UniProt Q16832).
T2 construct: The enzymes were purchased as a catalytic domain GST Tag DDR1(#PR6913A) and DDR2 (#PR7167A); purchased ThermoFisher PR7167A
T2 sequence (Q16832 563-849 limits assumed): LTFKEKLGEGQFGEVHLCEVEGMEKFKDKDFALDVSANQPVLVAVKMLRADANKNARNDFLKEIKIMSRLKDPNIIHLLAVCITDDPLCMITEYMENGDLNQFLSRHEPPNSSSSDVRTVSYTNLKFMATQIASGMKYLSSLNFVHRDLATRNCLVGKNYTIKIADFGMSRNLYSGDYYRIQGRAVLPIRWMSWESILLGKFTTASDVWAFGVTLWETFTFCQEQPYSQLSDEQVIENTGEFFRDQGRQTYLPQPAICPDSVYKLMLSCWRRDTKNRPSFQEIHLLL
Description: LanthaScreen Eu-Kinase Binding Assay (TR-FRET tracer displacement), DDR2. The conditions noted are these: catalytic domain GST Tag DDR2; Kinase Tracer 178.
Excerpt: as §1

T1 sequence (Q08345 610-905 limits assumed): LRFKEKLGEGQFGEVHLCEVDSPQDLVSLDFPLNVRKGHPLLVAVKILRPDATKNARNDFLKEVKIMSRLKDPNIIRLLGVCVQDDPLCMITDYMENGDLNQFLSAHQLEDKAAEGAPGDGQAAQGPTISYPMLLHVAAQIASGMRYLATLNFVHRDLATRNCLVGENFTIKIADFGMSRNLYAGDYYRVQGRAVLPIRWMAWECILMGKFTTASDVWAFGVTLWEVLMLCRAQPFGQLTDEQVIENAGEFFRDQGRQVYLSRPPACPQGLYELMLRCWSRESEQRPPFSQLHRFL

Turning to `COc1cnc(Nc2cccc(S(N)(=O)=O)c2)nc1-c1sc2nccc(=O)n2c1-c1ccccc1` [Compound 69, 3-[5-Methoxy-4-(5-oxo-3-phenyl-5H-thiazolo[3,2-a]pyrimidin-2-yl)-pyrimidin-2-ylamino]-benzenesulfonamide], the IC50 was found to be 6880 nM on DDR1 and 8620 nM on DDR2.

Take `Cc1nc2sc(-c3ccnc(Nc4cccc(N5CCN(CCO)CC5)c4)n3)c(-c3ccccc3)n2c(=O)c1C(C)C` [Compound 76, 2-(2-{3-[4-(2-Hydroxy-ethyl)-piperazin-1-yl]-phenylamino}-pyrimidin-4-yl)-6-isopropyl-7-methyl-3-phenyl-thiazolo[3,2-a]pyrimidin-5-one]: the IC50 on DDR1 came out at 64.4 nM; on DDR2, 292 nM.

As for `CC(C)c1cc(=O)n2c(-c3ccccc3)c(-c3ccnc(Nc4cccc(N5CCN(CCO)CC5)c4)n3)sc2n1` [Compound 73, 2-(2-{3-[4-(2-Hydroxy-ethyl)-piperazin-1-yl]-phenylamino}-pyrimidin-4-yl)-7-isopropyl-3-phenyl-thiazolo[3,2-a]pyrimidin-5-one], the IC50 is 12.5 nM on DDR1 and 33.3 nM at DDR2.
